The values below come from patent US20200268779A1, “USE OF SECOISOLARICIRESINOL DIGLUCOSIDES (SDGs) AND RELATED COMPOUNDS FOR PROTECTION AGAINST RADIATION-INDUCED CARDIOVASCULAR DYSFUNCTION” (THE TRUSTEES OF THE UNIVERSITY OF PENNSYLVANIA, priority 2017, published 2020).

The subject of this test is mice exposed to thoracic radiation. In words: Thoracic radiation exposure in mice, non-invasive pulse oximetry (MouseOx). The conditions noted are these: male C57/LJ mice, single fraction thoracic radiation, LGM2605 post exposure daily for 3 weeks or daily for 3 months, measured 130-140 days post radiation. The class given is in vivo. As for the experimental part: FIG. 1. Arterial Oxygen saturation (A) and Pulse Distention (B) were measured in living mice (n=5), between 130 and 140 days post single fraction thoracic radiation exposure.
Mice (male, C57/LJ) were exposed to thoracic radiation and evaluated for multiple cardio-pulmonary measurements such as arterial oxygen saturation and pulse distention using non-invasive Pulse Oximetry (MouseOx non-invasive vital signs monitor STARR Life Sciences Corp., Oakmont, Pa.).
Pulse Distention is the amplitude of the cardiac light absorption signals. Pulse Distention is a hemodynamic measurement obtained by the pulse oximetry software, a measure of the local blood flow (carotid arteries) at the sensor location. […] This could indicate that LGM2605 helps reduce downstream effects of inflammation in tissues other than the lung.

As to `COc1cc(C[C@@H](CO[C@@H]2O[C@H](CO)[C@@H](O)[C@H](O)[C@H]2O)[C@H](CO[C@@H]2O[C@H](CO)[C@@H](O)[C@H](O)[C@H]2O)Cc2ccc(O)c(OC)c2)ccc1O` [LGM2605, secoisolariciresinol diglucoside], for the setting “decreased significantly in irradiated controls (FIG. 1B)”, the Pulse distention result was “remained at baseline levels”. For the same molecule, the “Arterial blood oxygenation (arterial oxygen saturation)” value (vs irradiated controls and vehicle (FIG. 1A)) is reported as “improved arterial blood oxygenation”.
